Assays:
Plasmepsin II = Plasmepsin II (Plasmodium falciparum, UniProt P46925); test: Inhibition of PM2 by FRET assay
Plasmodium falciparum = test: Antimalarial activity against Plasmodium falciparum infected human RBC; format: functional, organism-based

Plasmepsin II, sequence (P46925 whole entry): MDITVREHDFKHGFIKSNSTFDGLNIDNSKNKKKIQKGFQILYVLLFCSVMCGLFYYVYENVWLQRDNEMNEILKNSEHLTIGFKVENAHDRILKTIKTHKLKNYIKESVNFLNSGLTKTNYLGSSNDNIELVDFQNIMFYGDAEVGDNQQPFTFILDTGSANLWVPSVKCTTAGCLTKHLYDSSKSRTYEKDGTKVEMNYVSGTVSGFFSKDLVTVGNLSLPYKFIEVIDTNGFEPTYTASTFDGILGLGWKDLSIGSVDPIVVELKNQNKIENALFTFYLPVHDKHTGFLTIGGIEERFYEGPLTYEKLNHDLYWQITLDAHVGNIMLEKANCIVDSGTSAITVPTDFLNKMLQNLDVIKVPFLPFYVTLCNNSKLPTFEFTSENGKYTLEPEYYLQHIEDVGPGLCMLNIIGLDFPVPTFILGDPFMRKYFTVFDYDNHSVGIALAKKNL

SMILES | IC50 (Plasmepsin II) | IC50 (Plasmodium falciparum)
CCCCCc1ccc(C(=O)N(CCN(CCCC)CCCC)Cc2ccc(-c3ccc(CC(=O)O)cc3)cc2)cc1 | 463 nM | 7150 nM
CCCCCc1ccc(C(=O)N(CCN(CCCC)CCCC)Cc2ccc(N3CCSCC3)cc2)cc1 | 188 nM | 1760 nM
CCCCCc1ccc(C(=O)N(CCN(CCCC)CCCC)Cc2ccc(NCc3ccccc3)cc2)cc1 | 429 nM | 686 nM
CCCCCc1ccc(C(=O)N(CCN(CCCC)CCCC)Cc2ccc(-c3ccccc3)nc2)cc1 | 589 nM | 609 nM
CCCCCc1ccc(C(=O)N(CCN2CCCCC2)Cc2ccc(-c3ccc4c(c3)OCO4)cc2)cc1 | 334 nM | –
CCCCCc1ccc(C(=O)N(Cc2ccc(-c3ccc(CC(=O)OC)cc3)cc2)C2CCN(CCC(C)C)CC2)cc1 | 6 nM | 1.8 nM
CCCCCc1ccc(C(=O)N(CCN(CCCC)CCCC)Cc2ccc(N(C)c3ccncc3)cc2)cc1 | 3010 nM | 453 nM
CCCCCc1ccc(C(=O)N(CCN(CCCC)CCCC)Cc2ccc(-c3cncnc3)cc2)cc1 | 531 nM | 2230 nM
CCCCCc1ccc(C(=O)N(CCN(CCCC)CCCC)Cc2ccc(Nc3ccccc3)cc2)cc1 | 224 nM | 539 nM
CCCCCc1ccc(C(=O)N(CCN(CCCC)CCCC)Cc2ccc(Nc3ccncc3)cc2)cc1 | 1820 nM | 207 nM
CCCCCc1ccc(C(=O)N(CCN(CCCC)CCCC)Cc2ccc(N3CCCCC3)cc2)cc1 | 369 nM | 628 nM
CCCCCc1ccc(C(=O)N(CCN(CCCC)CCCC)Cc2ccc(-c3ccc4c(c3)OCO4)cn2)cc1 | 1910 nM | 698 nM
CCCCCc1ccc(C(=O)N(CCN(CCCC)CCCC)Cc2ccc(-c3cncnc3)cn2)cc1 | 8530 nM | 639 nM
CCCCCc1ccc(C(=O)N(CCN(CCCC)CCCC)Cc2ccc(NC(=O)C3CCNCC3)cc2)cc1 | 464 nM | 550 nM
CCCCCc1ccc(C(=O)N(CCN(CCCC)CCCC)Cc2ccc(N3CCN(c4ccccc4)CC3)cc2)cc1 | 200 nM | 1280 nM
CCCCCc1ccc(C(=O)N(CCN(CCCC)CCCC)Cc2ccc(N(C)Cc3ccccc3)cc2)cc1 | 289 nM | 609 nM
CCCCCc1ccc(C(=O)N(CCN(CCCC)CCCC)Cc2ccc(-c3ccc4c(c3)OCO4)nc2)cc1 | 437 nM | 677 nM
CCCCCc1ccc(C(=O)N(CCN(CCCC)CCCC)Cc2ccc(-c3ccccn3)nc2)cc1 | 736 nM | 411 nM
CCCCCc1ccc(C(=O)N(CCN(CCCC)CCCC)Cc2ccc(-c3cccnc3)nc2)cc1 | 587 nM | 458 nM
CCCCCc1ccc(C(=O)N(CCN(CCCC)CCCC)Cc2ccc(-c3ccccc3)cc2)cc1 | 143 nM | 2440 nM
CCCCCc1ccc(C(=O)N(CCN(CCCC)CCCC)Cc2ccc(NC(=O)c3ccnc(OC)c3)cc2)cc1 | 154 nM | 623 nM
CCCCCc1ccc(C(=O)N(CCN(CCCC)CCCC)Cc2ccc(-c3ccncc3)nc2)cc1 | 642 nM | 457 nM
CCCCCc1ccc(C(=O)N(CCN(CCCC)CCCC)Cc2ccc(-c3ccc(CC(=O)N4CCOCC4)cc3)cc2)cc1 | 74 nM | 885 nM
CCCCCc1ccc(C(=O)N(CCN(CCO)Cc2ccccc2)Cc2ccc(-c3ccc4c(c3)OCO4)cc2)cc1 | 334 nM | –
CCCCCc1ccc(C(=O)N(CCN(CCCC)CCCC)Cc2ccc(-c3cccnc3)cc2)cc1 | 374 nM | 273 nM
CCCCCc1ccc(C(=O)N(CCN(CC)CC)Cc2ccc(-c3ccc4c(c3)OCO4)cc2)cc1 | 1520 nM | –
CCCCCc1ccc(C(=O)N(CCN(CCCC)CCCC)Cc2ccc(N3CCN(Cc4ccccc4)CC3)cc2)cc1 | 646 nM | 790 nM
CCCCCc1ccc(C(=O)N(CCN2CCOCC2)Cc2ccc(-c3ccc4c(c3)OCO4)cc2)cc1 | 2900 nM | –

SMILES | IC50 (Plasmepsin II) | IC50 (Plasmodium falciparum)
CCCCCc1ccc(C(=O)N(CCN(CCCC)CCCC)Cc2ccc(-n3ccc4ccccc43)cc2)cc1 | 670 nM | 739 nM
CCCCCc1ccc(C(=O)N(CCN(CCCC)CCCC)Cc2ccc(-c3ccc(C(=O)N(C)C)cc3)cc2)cc1 | 77 nM | 859 nM
CCCCCc1ccc(C(=O)N(CCN2CCC(CCCc3ccccc3)CC2)Cc2ccc(-c3ccc4c(c3)OCO4)cc2)cc1 | 165 nM | –
CCCCCc1ccc(C(=O)N(CCN(CCCC)CCCC)Cc2ccc(-c3ccc(CC(=O)NCc4ccccc4)cc3)cc2)cc1 | 46 nM | 340 nM
CCCCCc1ccc(C(=O)N(CCN(CCC)CCC)Cc2ccc(-c3ccc4c(c3)OCO4)cc2)cc1 | 531 nM | –
CCCCCc1ccc(C(=O)N(CCCc2ccccc2)C2CCN(Cc3ccccc3)CC2)cc1 | 1700 nM | –
CCCCCc1ccc(C(=O)N(CCN(CCCC)CCCC)Cc2ccc(-c3cncnc3)nc2)cc1 | 2230 nM | 560 nM
CCCCCc1ccc(C(=O)N(CCN(CCCC)CCCC)Cc2ccc(-c3ccc(CC(=O)OC)cc3)cc2)cc1 | 183 nM | 2470 nM
CCCCCc1ccc(C(=O)N(CCN(CCCC)CCCC)Cc2ccc(NC(=O)c3cnccn3)cc2)cc1 | 243 nM | 605 nM
CCCCCc1ccc(C(=O)N(CCN(CCCC)CCCC)Cc2ccc(-c3ccc(C(=O)N4CCSCC4)cc3)cc2)cc1 | 56 nM | 751 nM
CCCCCc1ccc(C(=O)N(CCN(CCCC)CCCC)Cc2ccc(-c3ccc(CC(=O)N(C)Cc4ccccc4)cc3)cc2)cc1 | 91 nM | 725 nM
CCCCCc1ccc(C(=O)N(CCN(CCCC)CCCC)Cc2ccc(-c3cccnc3)cn2)cc1 | 5270 nM | 465 nM
CCCCCc1ccc(C(=O)N(CCN(C(C)C)C(C)C)Cc2ccc(-c3ccc4c(c3)OCO4)cc2)cc1 | 1500 nM | –
CCCCCc1ccc(C(=O)N(CCN(CCCC)CCCC)Cc2ccc(N(CC)CC)cc2)cc1 | 1490 nM | 550 nM
CCCCCc1ccc(C(=O)N(CCN(CCCC)CCCC)Cc2ccc(-c3ccc(C(=O)NCc4ccccc4)cc3)cc2)cc1 | 72 nM | 566 nM
CCCCCc1ccc(C(=O)N(CCN(CC)CCN(CC)CC)Cc2ccc(-c3ccc4c(c3)OCO4)cc2)cc1 | 439 nM | –
CCCCCc1ccc(C(=O)N(CCN(CCCC)CCCC)Cc2ccc(N(C)c3ccccc3)cc2)cc1 | 574 nM | 617 nM
CCCCCc1ccc(C(=O)N(CCN(CCCC)CCCC)Cc2ccc(-c3ccncc3)cn2)cc1 | 4550 nM | 630 nM
CCCCCc1ccc(C(=O)N(CCN(CCCC)CCCC)Cc2ccc(-c3ccncc3)cc2)cc1 | 212 nM | 583 nM
CCCCCc1ccc(C(=O)N(CCN2CCC(Cc3ccccc3)CC2)Cc2ccc(-c3ccc4c(c3)OCO4)cc2)cc1 | 190 nM | –
CCCCCc1ccc(C(=O)N(CCN(CCCC)CCCC)Cc2ccc(-c3ccc(OCCO)cc3)cc2)cc1 | 511 nM | 3660 nM
CCCCCc1ccc(C(=O)N(CCN(CCCC)CCCC)Cc2ccc(-c3ccccn3)cc2)cc1 | – | 1730 nM
CCCCCc1ccc(C(=O)N(CCN(CCCC)CCCC)Cc2ccc(N3CCN(C)CC3)cc2)cc1 | 2550 nM | 431 nM
CCCCCc1ccc(C(=O)N(CCN(CCCC)CCCC)Cc2ccc(NC(=O)C3CCCNC3)cc2)cc1 (centres undefined) | 202 nM | 376 nM
CCCCCc1ccc(C(=O)N(CCN(CCCC)CCCC)Cc2ccc(-c3ccccc3)cn2)cc1 | 2350 nM | 693 nM
CCCCCc1ccc(C(=O)N(CCN(CCCC)CCCC)Cc2ccc(-c3ccc4c(c3)OCO4)cc2)cc1 | 101 nM | 1200 nM
CCCCCc1ccc(C(=O)N(CCN(CCCC)CCCC)Cc2ccc(-n3cccc3)cc2)cc1 | 240 nM | 825 nM

— ChEMBL document CHEMBL1146154, “Inhibitors of Plasmepsin II-potential antimalarial agents” (Bioorg Med Chem Lett, 2006)
